According to patent US12377065B2, “Compositions for treatment of substance use disorder” (UNIVERSITY OF NORTH TEXAS HEALTH SCIENCE CENTER, priority 2019, dated 2025):

Columns and labels:
[1] = system: Swiss-Webster mice; assay: Cocaine-conditioned locomotor response, acquisition and expression (Example 2)
[2] = system: Swiss-Webster mice; assay: Acute cocaine-induced hyperlocomotion (Example 2); settings: cocaine 40 mg/kg; for effect on acute cocaine-induced hyperlocomotion: all doses tested, i.p., ANOVA effect of treatment
[3] = system: Swiss-Webster mice; assay: Nicotine-induced locomotor activity test; assay type: in vivo; settings: 60-90 min; for motor activity, compound alone: no nicotine, vs vehicle
Description: Test Compounds. […] Chantix (varencline, 3 mg/kg) was obtained from National Institute on Drug Abuse. All drugs were dissolved in 0.9% saline and pH was maintained at 7.
Testing Procedures. […] In all studies, horizontal activity (interruption of photocell beams) was measured for 120 min within 10-min periods.
Different groups of Swiss-Webster mice were pretreated via injection (IP) with either DMTU (5 or 10 mg/kg), or Chantix (varenicline, 3 mg/kg) or vehicle (0.9% saline) for 30 minutes (FIG. 10). Following pretreatment all groups were mice were injected via the subcutaneous (sc) route with either 0.9% saline or r nicotine (1.6 mg/kg) just prior to placement in the activity chamber. The activity of all mice were recorded for a period of 2-h (FIG. 10).

[4] = system: Swiss-Webster mice; assay: Cocaine-conditioned locomotor activity, expression test (Example 1); settings: last 15 minutes, vs Paired-vehicle, cocaine 40 mg/kg
[5] = system: mice; assay: Cocaine-conditioned place preference; assay type: in vivo
Description: All mice underwent standard place conditioning. As depicted in FIG. 3, the procedures of the first four days were identical to those described previously (Shetty et al., 2017). A preference score was calculated for each individual mouse using the following equation: Time spent on S+ (at test)−Time spent on S+ (at pretest). The preference score assesses the nature and magnitude of drug conditioning to the S+ floor, with positive numbers reflecting an increase in preference for S+ following the experience with cocaine and negative numbers indicating a decrease in preference following experience with cocaine. A second test session was conducted 24 hours later (on day 5). This test was identical to the test session on day 4 except that 30 minutes prior to testing, mice were pretreated with either 5 or 10 mg/kg DMTU (i.p.). A preference score was calculated after the second test in a similar fashion as described for the first preference test.
Data Analysis. […] The existence of subgroups was determined through application of K-means clustering analysis (SYSTAT v. 13.1). In this fashion, Test 1 data was partitioned into 3 subgroups: mice with high positive preference scores (labeled as High Seeker group), mice with low positive preference scores (labeled as Low Seeker group), and mice with negative preference scores (labeled as Avoider group).
Data from the mice treated with 5 mg/kg DMTU during Test 2 were analyzed separately from data from mice treated with 10 mg/kg DMTU. Separate one-way repeated measures analysis of variance (ANOVA) was conducted, with test (comparison of preference score on test day 1 and day 2) as a within-subject factor.
To assess the ability of DMTU (by either the 5 mg/kg or 10 mg/kg dose) to reduce cocaine-induced preference on different subsets of mice, within-subject planned comparisons of preference scores on test 1 and 2 were performed for each cluster separately (Avoider, Low Seeker, High Seeker). Alpha was set to 0.05.

[6] = all doses tested, i.p., ANOVA effect of treatment, last 15 min

`COc1cc(C(C)=O)ccc1O` [Apocynin, apocynin] was tested, and the “expression of the cocaine-conditioned locomotor response” value ([1]; 25 mg/kg i.p., initial 15 min of the test, post hoc) was “facilitated expression of the conditioned response”, the “acquisition of the cocaine-conditioned locomotor response” value (shortened to “acquisition”) [1, 6] was “no effect on acquisition” and the “expression of the cocaine-conditioned locomotor response” value [1, 6] was “no effect on expression”. For the same compound, the “effect on acute cocaine-induced hyperlocomotion” value [2] was “no significant main effect”.

`c1cnc2cc3c(cc2n1)[C@@H]1CNC[C@H]3C1` [Chantix, varenicline] was tested, and the “motor activity with nicotine” value ([3]; 3 mg/kg IP 30 min pretreatment + nicotine 1.6 mg/kg sc) was “significant reduction” and the “motor activity, compound alone” value ([3]; 3 mg/kg IP alone) was “significant reduction”.

With `CNC(=S)NC` [DMTU, N,N′-dimethylthiourea] the “expression of cocaine-conditioned locomotor activity (horizontal activity, counts)” value ([4]; 5 mg/kg i.p. 30 min before expression test) was “did not affect activity”, the “expression of cocaine-conditioned locomotor activity (horizontal activity, counts)” value ([4]; 10 mg/kg i.p. 30 min before expression test) was “significantly inhibited cocaine-conditioned locomotor activity” and the “acquisition” value ([1]; 50 mg/kg i.p., post-hoc) was “significantly attenuated acquisition”. The “expression of the cocaine-conditioned locomotor response” value ([1]; 25-50 mg/kg i.p., post-hoc) was “significantly attenuating expression”, the “ED50:AD50 ratio” value [1] was 4.676 and the “acquisition” value [1, 6] was “significant main effect”. The “expression of the cocaine-conditioned locomotor response” value [1, 6] was “significant effect on expression”, the “effect on acute cocaine-induced hyperlocomotion” value [2] was “no significant main effect” and the “cocaine-conditioned place preference score, Test 2 vs Test 1” value ([5]; 5 mg/kg i.p. 30 min before Test 2, clusters combined, cocaine 15 mg/kg) was “not significantly altered”. For the same compound, the “cocaine-conditioned place preference score, Test 2 vs Test 1” value ([5]; 5 mg/kg i.p., Avoider group) was “Neither dose of DMTU succeeded in blocking preference scores”, the “cocaine-conditioned place preference score, Test 2 vs Test 1” value ([5]; 5 mg/kg i.p., High Seeker subset) was “significantly reduced preference scores” and the “cocaine-conditioned place preference score, Test 2 vs Test 1” value ([5]; 5 mg/kg i.p., Low Seeker group) was “Neither dose of DMTU succeeded in blocking preference scores”. The “cocaine-conditioned place preference score, Test 2 vs Test 1” value ([5]; 10 mg/kg i.p. 30 min before Test 2, clusters combined, cocaine 15 mg/kg) was “not significantly altered”, the “cocaine-conditioned place preference score, Test 2 vs Test 1” value ([5]; 10 mg/kg i.p., Avoider group) was “Neither dose of DMTU succeeded in blocking preference scores” and the “cocaine-conditioned place preference score, Test 2 vs Test 1” value ([5]; 10 mg/kg i.p., High Seeker subset) was “significantly reduced preference scores”. For the same compound, the “cocaine-conditioned place preference score, Test 2 vs Test 1” value ([5]; 10 mg/kg i.p., Low Seeker group) was “Neither dose of DMTU succeeded in blocking preference scores”, the “nicotine-induced stimulant locomotor activity (horizontal activity, counts)” value ([3]; 5 mg/kg IP 30 min pretreatment + nicotine 1.6 mg/kg sc, only 10 mg/kg was significant) was “modulated nicotine induced stimulant action” and the “nicotine-induced stimulant locomotor activity (horizontal activity, counts)” value ([3]; 10 mg/kg IP 30 min pretreatment + nicotine 1.6 mg/kg sc, vs nicotine alone) was “significantly reduced the nicotine stimulant activity”. For the same compound, the “motor activity, compound alone” value ([3]; DMTU alone (5 or 10 mg/kg IP)) was “failed to alter the motor activity”.

For `CC(=O)N[C@@H](CS)C(=O)O` [NAC, N-acetylcysteine], the “expression of the cocaine-conditioned locomotor response” value ([1]; 100 mg/kg i.p., post-hoc) was “significant attenuation”, the “acquisition” value ([1]; 250 mg/kg i.p., post-hoc vs paired control) was “significantly attenuated acquisition” and the “ED50:AD50 ratio” value [1] was 1.2731. The “acquisition” value [1, 6] was “no significant main effect”, the “expression of the cocaine-conditioned locomotor response” value [1, 6] was “main effect” and the “effect on acute cocaine-induced hyperlocomotion” value [2] was “no significant main effect”.

`O=C1O[C@H]([C@@H](O)CO)C(O)=C1O` [Vitamin C, L-ascorbic acid] was tested, and the “acquisition” value ([1]; 100 mg/kg i.p., initial 15 min of the test, post-hoc) was “facilitated acquisition of the conditioned locomotor response”, the “acquisition” value [1, 6] was “failed to attenuate acquisition” and the “expression of the cocaine-conditioned locomotor response” value [1, 6] was “failed to attenuate”. The “effect on acute hyperkinetic effect of cocaine” value ([2]; 100 mg/kg i.p.) was “facilitated the acute hyperkinetic effect of cocaine”.

With `Cc1c(C)c2c(c(C)c1O)CC[C@@](C)(CCC[C@H](C)CCC[C@H](C)CCCC(C)C)O2` [Vitamin E, (+)-alpha-tocopherol] the “acquisition” value [1, 6] was “failed to attenuate acquisition”, the “expression of the cocaine-conditioned locomotor response” value [1, 6] was “failed to attenuate” and the “effect on acute cocaine-induced hyperlocomotion” value [2] was “had no effect on the acute effect of cocaine”.
